Reference: patent publication US12274830B2, “Nitric oxide inhalation therapy for infants with bronchiolitis” (BEYOND AIR LTD, priority 2015, dated 2025)
“Also recorded” adds a separate entry of the source.

How the values were obtained:
[1] = test system: infants with acute bronchiolitis; experiment: Efficacy (LOS, time to SpO2 >=92%, time to clinical score <=5) of intermittent inhalations of 160 ppm NO in infants with acute bronchiolitis; type: in vivo, human
Experimental: The study was a randomized, prospective, single center, double blind study of 2-11 month old hospitalized infants with acute bronchiolitis (FIG. 1).
Subjects were screened within 4 hours of admission and randomized (1:1) to receive intermittent inhalations of 160 ppm NO along with standard treatment (NO group) or intermittent inhalations of 02/air mixture and standard treatment (control group), for a maximum of 25 inhalations.
Secondary Outcome: Efficacy parameters: LOS calculated in hours, starting from first inhalation until: 1) Oxygen saturation (SpO2) ≥92% in room-air; 2) Clinical score ≤5 (15, 16) and; 3) blinded physician decision of “ready for discharge”.
The secondary outcome were efficacy measures, including LOS, time to achieve ≥92% SaO2, and time to achieve a clinical score of ≤5. LOS in hours was defined as the time between first treatment until the time the infant was “ready for discharge”, defined as 1. Room air saturation of ≥92%; 2. Clinical severity symptom score (Table E1) of ≤5; 3. A clinical decision made by a blinded pediatrician.
A severity symptom score, was used to determine the severity of each infant (Table E1). The score was comprised of four components: Respiratory rate, use of accessory muscles, wheezes and crackles on auscultation, and % room-air oxygen saturation (SpO2). Each component is given 0 to 3 points, with a total possible score of 12. Infants with a score of <6 were determined as mild and were not included in the study, while infants with a score of >10 were determined as very severe and were also excluded.
Each patient was given 5 inhalations a day of NO (treatment group) or oxygen (control group), along with the standard supportive treatment, for a maximum of 25 inhalations (based on phase I safety data). Each participant was examined and evaluated using the severity symptom score by a blinded pediatricians every […] (9 am and 3 pm). When the room-air SpO2 reached 92%, and the score was ≤5, and the patient was assessed as “ready for discharge”, the treatment was discontinued.
Post-hoc subgroup analyses of subjects with a LOS ≤24 hours and >24 hours were also conducted for the key post-hoc secondary endpoints, for the following reasons: based on preclinical studies, the anti-microbial treatment effect of NO is expected to take approximately 2.5 hours of exposure (i.e., 24 hours treatment). A third of the subjects were discharged after <24 hours in hospital. A longer LOS is expected to correlate with a higher disease severity, and therefore any treatment effect should be more evident in the subgroup LOS >24 hours.
LOS was calculated in hours from the first inhalation treatment to “ready for discharge” defined as physician decision to discharge.
Time to achieve room-air SpO2 of ≥92% (improvement in oxygenation) leading to discharge was calculated from first treatment to the first time of room-air SpO2 of ≥92% sustained until discharge. Time to clinical score of ≤5 was calculated from the first inhalation to the first time the subject reached a clinical score of ≤5.
The following statistical tests were used in the analysis of the data presented in this study: 1. The Paired T-Test was applied for testing the statistical significance of the changes from baseline for quantitative variables within each study group; 2. The two-sample T-test or Non-parametric Wilcoxon Rank Sum test or median tests were used as appropriate for analyzing differences between the study groups in quantitative parameters; 3. The Chi-square test was applied for testing the statistical significance of the differences in frequency of categorical variables between the study groups; 4. Survival analysis using a Kaplan-Meier survival function curve was applied for testing the statistical significance of the difference between the study groups in the following endpoints: LOS, from first inhalation to ready to discharge, time to achieve 92% saturation leading to discharge, and time to achieve clinical score ≤5. […]

MRSA = conditions: 200 ppm gNO; cited from earlier work
Serracia sp. = conditions: 200 ppm gNO; cited from earlier work
Klebsiella sp.#2 = conditions: 200 ppm gNO; cited from earlier work
E. coli = conditions: 200 ppm gNO; cited from earlier work
Mycobacterium smegmatis = conditions: 200 ppm gNO; cited from earlier work

## [N]=O [NO, nitric oxide]
[1]; ITT (N=42), NO group, P=0.517 vs control
  Time to first 92% O2 saturation sustained to discharge: 35.50 ± 33.73 h
[1]; ITT (N=43), NO group, P=0.621 vs control
  Mean time to reach clinical score of ≤5: 32.83 ± 30.61 h
[1]; ITT including the 16 infants discharged within <24 hours, P=0.65 vs control
  Median LOS: 40 h
[1]; ITT, 43 subjects, NO group, P=0.86 vs control
  Length of stay (LOS), mean±SD: 43.3 ± 32.95 h
[1]; Kaplan Meier, PP, LOS >24 hours, 95% CI=0.139, 0.921, P=0.028
  Hazard ratio (HR), time to first sustained 92% O2 saturation: 0.358
[1]; Kaplan-Meier, ITT, LOS >24 hours, 95% CI: 0.161, 0.949, log rank P=0.033
  Hazard ratio (HR), time to clinical score ≤5: 0.391
[1]; post-hoc ITT, LOS >24 hours subgroup, P=0.014 vs control
  Median LOS, post-hoc subgroup: 41.92 h
[1]; post-hoc, subgroup LOS >24 hours
  Clinical benefit of NO versus standard treatment (LOS, time to SpO2 ≥92%, time to clinical score ≤5): statistically significant clinical benefits; also recorded: statistically significant in favor of the NO group; also recorded: statistically significant treatment benefit
MRSA
  +2.5 Log10: 4.2 hours
  LD100: 5 h
  Latent Period: 3 h
Serracia sp.
  +2.5 Log10: 4.9 hours
  LD100: 6 h
  Latent Period: 4 h
Klebsiella sp.#2
  +2.5 Log10: 4.1 hours
  LD100: 5 h
  Latent Period: 2 h
E. coli
  +2.5 Log10: 4.2 hours
  LD100: 5 h
  Latent Period: 3 h
Mycobacterium smegmatis
  +2.5 Log10: 9.2 hours
  LD100: 10 h
  Latent Period: 7 h
